According to patent publication EP2525224A1, “VDAC1-S as a cell marker” (Centre National de la Recherche Scientifique, priority 2011, dated 2012):

Tests used:
Format in all cases: cell-based
LS174 cells [1] = assay: Caspase 3/7 activity (Caspase-Glo 3/7); details: hypoxic cancer cells
Experimental: Quantification of the caspase 3/7 activity was done using a luciferin/luciferase based assay (Caspase-Glo 3/7 kit, Promega) according to the manufacture's instructions. Each condition was performed 8 times and the entire experiment was done 3 times. Significant differences are based on the Student's t test * p < 0.005. To test ABT-737 (Hickman et al., 2008, J Neurophysiol 99, 1515), LS 174 cells were cultured for 72 h in normoxia (N) or hypoxia 1% O2 (H 1 %) and ABT was then added for 24 h at different concentrations (0, 2 or 10 µM). Staurosporine (1 µg/ml) was added (+ Stau) 4 h prior to assay for caspase 3/7 activity, […]

LS174 cells [2] = assay: Flow cytometric analysis of mitochondrial transmembrane potential (ΔΨm) with DiOC6(3); details: staurosporine 1 µM for 18h
Experimental: The following fluorochromes were employed to determine mitochondrial function by cytofluorometry: 3,3'-dihexyloxacarbocyanine iodide [DiOC6(3), 50 nM (Invitrogen) for mitochondrial transmembrane potential (ΔΨm) quantification and propidium iodide (PI; 1 µg/ml (Sigma) for determination of cell viability (all from Molecular Probes). Cells were trypsinized and labeled with the fluorochromes at 37°C, followed by cytofluorometric analysis with a fluorescence-activated cell sorter (FACS) scan (Becton Dickinson). The fluorescence intensity of DiOC6 (3) (which measures ΔΨm) is plotted against the propidium iodide signal ([…]). The CellQuest software (Becton Dickinson) was used for the data analysis.

LS174 cells [3] = assay: Immunofluorescence of cytochrome c release; details: with staurosporine
Experimental: Cells were grown on glass coverslips and then fixed in 3.3% paraformaldehyde for 30 min at room temperature (RT), permeabilized with 0.2% Triton X-100 for 5 min. Cells were blocked with phosphate-buffered saline (PBS) containing 0.2% gelatin, 2% bovine serum albumin for 30 min at RT, and incubated with anti-rabbit HIF-1α (1/1000 - described in "Immunoblotting"), and/or anti-mouse cyto. c (1/500 - BD Bioscience) or anti-rabbit VDAC (1/400 - Abcam) antibodies in PBS for 3 h at RT. After washing, cells were incubated in the presence of a biotinylated anti-mouse secondary antibody conjugated to Alexa 594 (1:400) or anti-rabbit secondary antibody conjugated to Alexa 488 (1:400) for 1 h at RT (Invitrogen). After washing, coverslips were mounted in Cytifluor (Amersham Biosciences), detection of the fluorescence was performed with a Leica DMR fluorescence microscope, and images were recorded using RSImage software.

| SMILES | induced apoptosis (LS174 cells [1]) | ΔΨm (LS174 cells [2]; hypoxia 1 % O2 for 72h) | ΔΨm (LS174 cells [2]; normoxia) | release of mitochondrial cytochrome c into the cytoplasm (LS174 cells [3]; hypoxic cells with enlarged mitochondria) | release of mitochondrial cytochrome c into the cytoplasm (LS174 cells [3]; normoxia) |
| --- | --- | --- | --- | --- | --- |
| COc1cc([C@@H]2c3cc4c(cc3[C@@H](O[C@@H]3O[C@@H]5CO[C@@H](C)O[C@H]5[C@H](O)[C@H]3O)[C@H]3COC(=O)[C@H]23)OCO4)cc(OC)c1O [etoposide] | resistant | – | – | – | – |
| CN[C@@H]1C[C@H]2O[C@@](C)([C@@H]1OC)n1c3ccccc3c3c4c(c5c6ccccc6n2c5c31)C(=O)NC4 [staurosporine] | resistant | remained unaffected | decreased | do not show release of cyto. c | released mitochondrial cytochrome c (cyto. c) into the cytoplasm |
